The target in the first assay is BRD4 (Homo sapiens, UniProt O60885). The assay is described as follows: Time resolved fluorescence resonance energy transfer (TR-FRET) binding assay, bromodomain BRD4. To be noted: FRET BRD4 IC50 (nM), one of the FRET assays described. On the technique in general: In TR-FRET formats the signal depends on donor and acceptor labels being close together.
One may read the IC50 as the point on the concentration scale where inhibition reaches its midpoint. The compound `[2H]C([2H])([2H])c1nnn(C)c1-c1cnc2c3ccc(N4C5CCC4CC(O)C5)nc3n([C@H](c3ccccc3)C3CCOCC3)c2c1` (stereo partly drawn) [Example 183, 8-{5-[4-(^2H3)Methyl-1-methyl-1H-1,2,3-triazol-5-yl]-8-[(S)-oxan-4-yl(phenyl)methyl]-3,8,10-triazatricyclo[7.4.0.0^2,^7]trideca-1(9),2(7),3,5,10,12-hexaen-11-yl}-8-azabicyclo[3.2.1]octan-3-ol] yielded an IC50 below 10 nM.

The assay is the same for the next values; noted with them: one of the FRET assays described; read-out: FRET BRD4 IC50.
On to `Cc1nnn(C)c1-c1cnc2c3ccc(NC(=O)C(C)(C)C)nc3n([C@H](c3ccccc3)C3CCOCC3)c2c1` [Example 207, N-[5-(Dimethyl-1H-1,2,3-triazol-5-yl)-8-[(S)-oxan-4-yl(phenyl)methyl]-3,8,10-triazatricyclo[7.4.0.0^2,^7]trideca-1(9),2(7),3,5,10,12-hexaen-11-yl]-2,2-dimethylpropanamide], for which the IC50 was below 10 nM.

For the compound `[2H]C([2H])([2H])c1nnn(C)c1-c1cnc2c3c(OCC)ncc(S(C)(=O)=O)c3n(C(c3ncccc3F)C3CCC(F)(F)CC3)c2c1` (stereo not drawn) [Example 74, 8-[(4,4-Difluorocyclohexyl)(3-fluoropyridin-2-yl)methyl]-13-ethoxy-10-methanesulfonyl-5-[4-(^2H3)methyl-1-methyl-1H-1,2,3-triazol-5-yl]-3,8,12-triazatricyclo[7.4.0.0^2,^7]trideca-1(13),2(7),3,5,9,11-hexaene], the IC50 is below 10 nM.

As to `Cc1nnn(C)c1-c1cnc2c3c(F)nccc3n([C@H](c3ccccc3)C3CCOCC3)c2c1` [Example 3, 5-(Dimethyl-1H-1,2,3-triazol-5-yl)-13-fluoro-8-[(S)-oxan-4-yl(phenyl)methyl]-3,8,12-triazatricyclo[7.4.0.0^2,^7]trideca-1(13),2(7),3,5,9,11-hexaene], the IC50 is below 10 nM.

With `[2H]C(C)(O)c1ccc2c3ncc(-c4c(C)nnn4C)cc3n([C@H](c3ccccc3)C3CCOCC3)c2n1` (stereo partly drawn) [Example 172, 1-[5-(Dimethyl-1H-1,2,3-triazol-5-yl)-8-[(S)-oxan-4-yl(phenyl)methyl]-3,8,10-triazatricyclo[7.4.0.0^2,^7]trideca-1(9),2(7),3,5,10,12-hexaen-11-yl](1-^2H)ethan-1-ol], the IC50 was below 10 nM.

For the compound `[2H]C([2H])([2H])c1nnn(C)c1-c1cnc2c3c(OCC4CCCO4)ncc(S(C)(=O)=O)c3n([C@H](c3ccccc3)C3CCOCC3)c2c1` (stereo partly drawn) [Example 110, 10-Methanesulfonyl-5-[4-(^2H3)methyl-1-methyl-1H-1,2,3-triazol-5-yl]-8-[(S)-oxan-4-yl(phenyl)methyl]-13-[(2S)-oxolan-2-ylmethoxy]-3,8,12-triazatricyclo[7.4.0.0^2,^7]trideca-1(13),2(7),3,5,9,11-hexaene], the concentration for half-maximal inhibition (IC50) is below 10 nM.

Take `Cc1cnn(C)c1-c1cnc2c3ccc(S(C)(=O)=O)nc3n([C@H](c3ccccc3)C3CCOCC3)c2c1` [Example 146, 5-(1,4-Dimethyl-1H-pyrazol-5-yl)-11-methanesulfonyl-8-[(S)-oxan-4-yl(phenyl)methyl]-3,8,10-triazatricyclo[7.4.0.0^2,^7]trideca-1(13),2(7),3,5,9,11-hexaene]: the IC50 was below 1500 nM.

Turning to `Cc1nnn(C)c1-c1cnc2c3ccc(N4CCN(S(C)(=O)=O)CC4)nc3n([C@H](c3ccccc3)C3CCOCC3)c2c1` [Example 188, 5-(Dimethyl-1H-1,2,3-triazol-5-yl)-11-(4-methanesulfonylpiperazin-1-yl)-8-[(S)-oxan-4-yl(phenyl)methyl]-3,8,10-triazatricyclo[7.4.0.0^2,^7]trideca-1(9),2(7),3,5,10,12-hexaene], the 50% inhibitory concentration (IC50) is below 1 nM.

Regarding `[2H]C([2H])([2H])c1nnn(C)c1-c1cnc2c3cnc(OC)cc3n([C@H](c3ccccc3)C3CCOCC3)c2c1` [Example 287, 11-Methoxy-5-[4-(^2H3)methyl-1-methyl-1H-1,2,3-triazol-5-yl]-8-[(S)-oxan-4-yl(phenyl)methyl]-3,8,12-triazatricyclo[7.4.0.0^2,^7]trideca-1(9),2(7),3,5,10,12-hexaene], the IC50 was below 1 nM.

Consider `[2H]C([2H])([2H])c1nnn(C)c1-c1cnc2c3c(OC)ncc(S(C)(=O)=O)c3n([C@@H](c3ccccc3)C3CCC(F)(F)CC3)c2c1` [Example 82, 8-[(R)-(4,4-Difluorocyclohexyl)(phenyl)methyl]-10-methanesulfonyl-13-methoxy-5-[4-(^2H3)methyl-1-methyl-1H-1,2,3-triazol-5-yl]-3,8,12-triazatricyclo[7.4.0.0^2,^7]trideca-1(13),2(7),3,5,9,11-hexaene], for which the IC50 is below 1500 nM.

For `Cc1noc(C)c1-c1cnc2c3cnc(C(C)(C)O)cc3n([C@H](c3ccc(F)cc3)C3CCOCC3)c2c1` [Example 331, 2-[5-(Dimethyl-1,2-oxazol-4-yl)-8-[(S)-(4-fluorophenyl)(oxan-4-yl)methyl]-3,8,12-triazatricyclo[7.4.0.0^2,^7]trideca-1(9),2(7),3,5,10,12-hexaen-11-yl]propan-2-ol], the IC50 is below 10 nM.

Consider `[2H]C([2H])([2H])c1nnn(C)c1-c1cnc2c3ccc(N4CCN(C5CC5)CC4)nc3n([C@H](c3ccccc3)C3CCOCC3)c2c1` [Example 151, 11-(4-Cyclopropylpiperazin-1-yl)-5-[4-(^2H3)methyl-1-methyl-1H-1,2,3-triazol-5-yl]-8-[(S)-oxan-4-yl(phenyl)methyl]-3,8,10-triazatricyclo[7.4.0.0^2,^7]trideca-1(9),2(7),3,5,10,12-hexaene], for which the IC50 is below 10 nM.

As to `[2H]C([2H])([2H])c1nnn(C)c1-c1cnc2c3c(OCC4CC4)ncc(S(C)(=O)=O)c3n([C@H](c3ccccc3)C3CCOCC3)c2c1` [Example 59, 13-(Cyclopropylmethoxy)-10-methanesulfonyl-5-[4-(^2H3)methyl-1-methyl-1H-1,2,3-triazol-5-yl]-8-[(S)-oxan-4-yl(phenyl)methyl]-3,8,12-triazatricyclo[7.4.0.0^2,^7]trideca-1(13),2(7),3,5,9,11-hexaene], the IC50 was below 1 nM.

Consider `COc1ncc(S(C)(=O)=O)c2c1c1ncc(-c3c(C)noc3C)cc1n2[C@H](c1ccccc1)C1CCOCC1` [Example 45, 5-(Dimethyl-1,2-oxazol-4-yl)-10-methanesulfonyl-13-methoxy-8-[(S)-oxan-4-yl(phenyl)methyl]-3,8,12-triazatricyclo[7.4.0.0^2,^7]trideca-1(13),2(7),3,5,9,11-hexaene], for which the IC50 is below 1 nM.

Take `Cc1nnn(C)c1-c1cnc2c3cnc(Cl)cc3n(C(c3ncccc3F)C3CCOCC3)c2c1` (stereo not drawn) [Example 316]: the IC50 is below 10 nM.

For `COc1ncc(S(=O)(=O)CC2(O)COC2)c2c1c1ncc(-c3c(C)nnn3C)cc1n2[C@H](c1ccccc1)C1CCOCC1` [Example 106, 3-({[5-(Dimethyl-1H-1,2,3-triazol-5-yl)-13-methoxy-8-[(S)-oxan-4-yl(phenyl)methyl]-3,8,12-triazatricyclo[7.4.0.0^2,^7]trideca-1(13),2(7),3,5,9,11-hexaen-10-yl]sulfonyl}methyl)oxetan-3-ol], the half-inhibitory concentration (IC50) is below 10 nM.

As to `Cc1nnn(C)c1-c1cnc2c3ccc(N4CCS(=O)(=O)CC4)nc3n([C@H](c3ccccc3)C3CCOCC3)c2c1` [Example 182, 4-[5-(Dimethyl-1H-1,2,3-triazol-5-yl)-8-[(S)-oxan-4-yl(phenyl)methyl]-3,8,10-triazatricyclo[7.4.0.0^2,^7]trideca-1(9),2(7),3,5,10,12-hexaen-11-yl]-1,4-thiomorpholine-1,1-dione], the IC50 is below 1 nM.

For the compound `[2H]C([2H])([2H])c1onc(C)c1-c1cnc2c3cnc(C(C)(C)O)cc3n([C@H](c3ccc(F)cc3)C3CCOCC3)c2c1` [Example 225, 2-{8-[(S)-(4-Fluorophenyl)(oxan-4-yl)methyl]-5-[5-(^2H3)methyl-3-methyl-1,2-oxazol-4-yl]-3,8,12-triazatricyclo[7.4.0.0^2,^7]trideca-1(13),2(7),3,5,9,11-hexaen-11-yl}propan-2-ol], the IC50 was below 1 nM.

On to `Cc1nnn(C)c1-c1cnc2c3ccc(S(C)(=O)=O)nc3n([C@H](c3ccccc3F)C3CCOCC3)c2c1` [Example 221, 5-(Dimethyl-1H-1,2,3-triazol-5-yl)-8-[(S)-(2-fluorophenyl)(oxan-4-yl)methyl]-11-methanesulfonyl-3,8,10-triazatricyclo[7.4.0.0^2,^7]trideca-1(13),2(7),3,5,9,11-hexaene], for which the IC50 was below 10 nM.

For the compound `Cc1nnn(C)c1-c1cnc2c3ccc(N4CCS(=O)(=O)C(C)C4)nc3n([C@H](c3ccccc3)C3CCOCC3)c2c1` (stereo partly drawn) [Example 213, 4-[5-(Dimethyl-1H-1,2,3-triazol-5-yl)-8-[(S)-oxan-4-yl(phenyl)methyl]-3,8,10-triazatricyclo[7.4.0.0^2,^7]trideca-1(9),2(7),3,5,10,12-hexaen-11-yl]-2-methyl-1λ^6,4-thiomorpholine-1,1-dione], the IC50 is below 1 nM.

On to `CCOP(=O)(O)CCNc1ccc2c3ncc(-c4c(C)nnn4C)cc3n([C@H](c3ccccc3)C3CCOCC3)c2n1` [Example 220, (2-{[5-(Dimethyl-1H-1,2,3-triazol-5-yl)-8-[(S)-oxan-4-yl(phenyl)methyl]-3,8,10-triazatricyclo[7.4.0.0^2,^7]trideca-1(9),2(7),3,5,10,12-hexaen-11-yl]amino}ethyl)(ethoxy)phosphinic acid], for which the IC50 is below 1 nM.

Regarding `Cc1noc(C)c1-c1cnc2c3cnc(Cl)cc3n(C(c3ccc(Cl)cn3)C3CCOCC3)c2c1` (single isomer, unassigned) [Example 327], the half-inhibitory concentration (IC50) is below 1500 nM.

For the compound `[2H]C([2H])([2H])c1nnn(C)c1-c1cnc2c3cnc(Cl)cc3n(C(c3ncccc3F)C3CCOCC3)c2c1` (single isomer, unassigned) [Example 321], the IC50 was below 10 nM.

For the compound `[2H]C([2H])([2H])c1nnn(C)c1-c1cnc2c3ccc(N(C)CCNC)nc3n([C@H](c3ccccc3F)C3CCOCC3)c2c1` [Example 236, 8-[(S)-(2-Fluorophenyl)(oxan-4-yl)methyl]-N-methyl-5-[4-(^2H3)methyl-1-methyl-1H-1,2,3-triazol-5-yl]-N-[2-(methylamino)ethyl]-3,8,10-triazatricyclo[7.4.0.0^2,^7]trideca-1(13),2(7),3,5,9,11-hexaen-11-amine], the IC50 is below 1 nM.

The values are drawn from patent US9725449B2, “Tricyclic compounds as anticancer agents” (BRISTOL-MYERS SQUIBB COMPANY, priority 2015, dated 2017).
